Three compounds from paper PMC7756392, “Syntheses of Thailandepsin B Pseudo‐Natural Products: Access to New Highly Potent HDAC Inhibitors via Late‐Stage Modification” (Chemistry (Weinheim an Der Bergstrasse, Germany), 2020) can be followed below.

One assay deals with HeLa cells. The assay can be described thus: MTS cell viability assay, HeLa. The class given is cell-based. The note with it: for GI50 (in words): MTS assay, 72 h. Here is the method:
(§1) hHDAC1/6: Activity assays were performed in OptiPlateTM-96 F black microplates (PerkinElmer). Commercial available enzymes (human recombinant HDAC1; BPS Bioscience, catalog no. 50051 and human recombinant HDAC6; BPS Bioscience, catalog no. 50006) were used. Total assay volume of 60 µL contains 42 µl of assay buffer (50 mM Tris -HCl, pH 8.0, 137 mM NaCl, 2.7 mM KCl, 1 mM MgCl2, 0.2 mM TCEP and 1 mg/mL bovine serum albumin), 10 µL of enzyme solution in assay buffer, 3 µL of increasing concentrations of inhibitors in DMSO and 5 μL of the fluorogenic substrate ZMAL (Z -(Ac)Lys-AMC) (126 μM). After incubation (90 min, 37 °C) 60 µL of stop solution, containing 5 μL Trichostatin A (TSA) (33 μM) and 10 μL trypsin (6 mg/mL) in trypsin buffer (Tris-HCl 50 mM, pH 8.0, NaCl 100 mM), were added. After incubation (30 min at 37 °C) fluorescence signal (λex = 390 nm, λem = 460 nm) was measured on a BMG LABTECH POLARstar OPTIMA plate reader (BMG Labtechnologies, Germany).10 hHDAC8: Enzyme was obtained from cooperation partners (Romier).11 Assay was performed as described before. […] After incubation (30 min at 37 °C) fluorescence signal was determined as mentioned for HDAC1/6.12 […]
(§2) Cell proliferation was determined by using the Celltiter 96 AQueous nonradioactive Proliferation Assay (Promega). After 72h of incubation time with inhibitor or DMSO, 20 µL of a mixture (20:1) consisting of MTS (3-(4,5-dimethylthiazol-2-yl)-5-(3-carboxymethoxyphenyl)-2-(4-sulfophenyl-2H-tetrazolium) and PMS (phenazine methosulfate) were added to each well. Absorption was measured after another 2-4 h with a BMG LABTECH POLARstar OPTIMA plate reader (BMG Labtechnologies, Germany).
(§3) Experiments were performed in triplicates and GI50 values were calculated using the software Origin 2019. […]
(§4) CO2. […] After another 20 min of incubation, the fluorescence signal (λex = 390 nm, λem = 460 nm) was measured on a BMG LABTECH POLARstar OPTIMA plate reader (BMG Labtechnologies, Germany). […]
On the technique in general: Formazan colour is commonly taken as a measure of viable cells.

For a further assay, the system named is HDAC in HeLa cells. The assay can be described thus: Cellular HDAC activity assay, HeLa. The class given is cell-based. Particulars: for IC50: read-out: cellular HDAC inhibition IC50. As to the method: Cellular trypsin-based activity assay:13 1 x 10^4 Hela cells (50 µL) were seeded in sterile dark 96-well microtiter plates (Perkin Elmer) and incubated overnight at 37 °C and 5% CO2 atmosphere. The next day, the medium was aspirated and the cells were incubated with different inhibitor concentrations or DMSO, diluted in 50 µL m edium without supplements and phenol red. After 2 h incubation time, 50 µL of the HDAC substrate MAL (Boc -Lys(Ac)-AMC) were added to a final concentration of 150 µM and the plate was incubated for 2 h at 37°C and 5%
CO2. The reaction was stopped by adding 50 µL of stop solution (50 mM Tris, 137 mM NaCl, 1 mM MgCl2, 2.7 mM KCl, 1 µM TSA, 0.1% Igepal, 1 mg/ml Trypsin). After another 20 min of incubation, the fluorescence signal (λex = 390 nm, λem = 460 nm) was measured on a BMG LABTECH POLARstar OPTIMA plate reader (BMG Labtechnologies, Germany). […]

The target of another assay is T1, human recombinant HDAC1 (Homo sapiens, UniProt Q13547).
T1 construct: purchased BPS Bioscience 50051
The assay can be described thus: ZMAL trypsin assay, HDAC1. The class given is biochemical. Particulars: ZMAL trypsin assay. As to the method: [28] Assays for HDAC1/6 were prepared according to: B. Heltweg , J. Trapp , M. Jung , Methods 2005, 36, 332–337; assays for HDAC8 were prepared according to: J. Senger , J. Melesina , M. Marek , C. Romier , I. Oehme , O. Witt , W. Sippl , M. Jung , J. Med. Chem. 2016, 59, 1545–1555. […]
hHDAC1/6: Activity assays were performed in OptiPlateTM-96 F black microplates (PerkinElmer). Commercial available enzymes (human recombinant HDAC1; BPS Bioscience, catalog no. 50051 and human recombinant HDAC6; BPS Bioscience, catalog no. 50006) were used. Total assay volume of 60 µL contains 42 µl of assay buffer (50 mM Tris -HCl, pH 8.0, 137 mM NaCl, 2.7 mM KCl, 1 mM MgCl2, 0.2 mM TCEP and 1 mg/mL bovine serum albumin), 10 µL of enzyme solution in assay buffer, 3 µL of increasing concentrations of inhibitors in DMSO and 5 μL of the fluorogenic substrate ZMAL (Z -(Ac)Lys-AMC) (126 μM). After incubation (90 min, 37 °C) 60 µL of stop solution, containing 5 μL Trichostatin A (TSA) (33 μM) and 10 μL trypsin (6 mg/mL) in trypsin buffer (Tris-HCl 50 mM, pH 8.0, NaCl 100 mM), were added. […]

The next assay relates to HL60 cells. The assay can be described thus: MTS cell viability assay, HL60. It is filed as cell-based. Particulars: for GI50 (in words): 72 h. As to the method: as §1, §2, §3, §4

T1 sequence (Q13547 whole entry): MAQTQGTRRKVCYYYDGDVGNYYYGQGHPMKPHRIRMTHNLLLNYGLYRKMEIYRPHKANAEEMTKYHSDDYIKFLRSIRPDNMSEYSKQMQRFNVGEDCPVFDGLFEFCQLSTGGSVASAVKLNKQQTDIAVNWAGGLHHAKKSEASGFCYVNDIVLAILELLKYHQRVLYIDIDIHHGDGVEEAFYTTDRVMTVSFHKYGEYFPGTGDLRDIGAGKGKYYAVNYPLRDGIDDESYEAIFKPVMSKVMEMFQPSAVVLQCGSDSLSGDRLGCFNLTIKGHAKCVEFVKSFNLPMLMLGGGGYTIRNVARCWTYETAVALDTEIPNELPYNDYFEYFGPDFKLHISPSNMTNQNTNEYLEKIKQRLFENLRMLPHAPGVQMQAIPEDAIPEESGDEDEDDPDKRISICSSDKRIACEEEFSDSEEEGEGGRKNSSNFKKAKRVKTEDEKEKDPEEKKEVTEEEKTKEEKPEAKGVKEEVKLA

As for `CCCC[C@H]1NC(=O)C[C@@H](/C=C/CCSC(C)=O)OC(=O)C[C@H](O)[C@@H]([C@@H](C)CC)NC(=O)[C@@H](C)NC1=O` [compound 33], the “GI50 (in words)” value in the assay with HeLa cells and in the assay on HL60 cells was “nanomolar” in each case. In addition, the values for the half-inhibitory concentration (IC50) with HDAC in HeLa cells and on human recombinant HDAC1 were 34 ± 2.2 nM and 12.3 ± 1.6 nM, respectively.
On to `CCCC[C@H]1NC(=O)C[C@@H](/C=C/CCSC(C)=O)OC(=O)C[C@H](O[Si](C)(C)C(C)(C)C)[C@@H]([C@@H](C)CC)NC(=O)[C@@H](C)NC1=O` [compound 32], for which the “GI50 (in words)” value with HeLa cells and in the assay on HL60 cells was “micromolar” in each case. Further, the results for the half-maximal inhibitory concentration (IC50) in the assay with HDAC in HeLa cells and at human recombinant HDAC1 were 58600 ± 1300 nM and 18700 ± 8900 nM, respectively.
As for `CCCC[C@H]1NC(=O)C[C@@H](/C=C/CCC(=O)NO)OC(=O)C[C@H](O)[C@@H]([C@@H](C)CC)NC(=O)[C@@H](C)NC1=O` [compound 8], the inhibition at 5 µM in the assay with HeLa cells (Homo sapiens, 5 μM, read-out: inhibition of cell growth at 5 μM) amounted to 30%. In the assay on HDAC in HeLa cells (5 μM), the “HDAC inhibition in cells at 5 μM (in words)” value is “no HDAC inhibition”. Also, the IC50 at human recombinant HDAC1 came to 28 ± 2 nM. For the same compound, the “growth inhibition at 5 μM (in words)” value in the assay with HL60 cells (5 μM) was “did not inhibit growth”.

As a reminder, the IC50 is the point on the concentration scale where inhibition reaches its midpoint. In general, inhibition refers to the change of the read-out against control, counted positive when it falls.
